Measured values as given in patent publication US4689326A, “Process for controlling hyperlipidemia” (Research Corporation, priority 1985, dated 1987).

Assays:
[1] = system: Mitochondrial Citrate Exchange; assay: In vitro enzyme activity, liver homogenate: mitochondrial citrate exchange; type: biochemical, CF1 male mouse; conditions: ± SD, N = 6
Protocol: (§1) In vitro enzymatic studies were undertaken using 10% homogenates of CF1 male mouse liver with […] of compound 3,4,5,6-dibenzohomopiperidine. In addition, in vivo enzymatic studies were performed, again using 10% liver homogenates (prepared in 0.25 M sucrose plus 0.001 M (ethylenedinitrilo)-tetraacetic acid, ph 7.25 from CF1 male mice obtained after administering 3,4,5,6-dibenzohomopiperidine for 16 days at a concentration ranging from 10 to 60 mg/kg/day, intraperitoneally.
(§2) The following enzyme activities were determined by following standard literature procedures: acetyl coenzyme synthetase; adenosine triphosphate dependent citrate lyase; mitochondrial citrate exchange; cholesterol/7 hydroxylase; 3-hydroxy-3-methyl-glutaryl coenzyme A reductase; acetyl coenzyme A carboxylase activity; fatty acid synthetase activity; sn-glycerol-3-phosphate acyl transferase activity; phosphatidate phosphohydrolase activity; cholesterol acyl transferase; and heparin activated hepatic lypoprotein lipase. Protein was determined for all enzyme assays by the Lowry et al. technique (J. Biol. Chem, 193, 265 (1951)).

[2] = molecular target: T1, ATP Dependent Citrate Lyase (Mus musculus, UniProt Q91V92); assay: In vitro enzyme activity, liver homogenate: ATP dependent citrate lyase; type: biochemical, CF1 male mouse; conditions: ± SD, N = 6, read-out: Percent Control, in vitro enzyme activity
T1 construct: 10% homogenates of CF1 male mouse liver; from tissue; host or cells: CF1 male mouse liver, 10% homogenate
T1 sequence (Q91V92 1-1091): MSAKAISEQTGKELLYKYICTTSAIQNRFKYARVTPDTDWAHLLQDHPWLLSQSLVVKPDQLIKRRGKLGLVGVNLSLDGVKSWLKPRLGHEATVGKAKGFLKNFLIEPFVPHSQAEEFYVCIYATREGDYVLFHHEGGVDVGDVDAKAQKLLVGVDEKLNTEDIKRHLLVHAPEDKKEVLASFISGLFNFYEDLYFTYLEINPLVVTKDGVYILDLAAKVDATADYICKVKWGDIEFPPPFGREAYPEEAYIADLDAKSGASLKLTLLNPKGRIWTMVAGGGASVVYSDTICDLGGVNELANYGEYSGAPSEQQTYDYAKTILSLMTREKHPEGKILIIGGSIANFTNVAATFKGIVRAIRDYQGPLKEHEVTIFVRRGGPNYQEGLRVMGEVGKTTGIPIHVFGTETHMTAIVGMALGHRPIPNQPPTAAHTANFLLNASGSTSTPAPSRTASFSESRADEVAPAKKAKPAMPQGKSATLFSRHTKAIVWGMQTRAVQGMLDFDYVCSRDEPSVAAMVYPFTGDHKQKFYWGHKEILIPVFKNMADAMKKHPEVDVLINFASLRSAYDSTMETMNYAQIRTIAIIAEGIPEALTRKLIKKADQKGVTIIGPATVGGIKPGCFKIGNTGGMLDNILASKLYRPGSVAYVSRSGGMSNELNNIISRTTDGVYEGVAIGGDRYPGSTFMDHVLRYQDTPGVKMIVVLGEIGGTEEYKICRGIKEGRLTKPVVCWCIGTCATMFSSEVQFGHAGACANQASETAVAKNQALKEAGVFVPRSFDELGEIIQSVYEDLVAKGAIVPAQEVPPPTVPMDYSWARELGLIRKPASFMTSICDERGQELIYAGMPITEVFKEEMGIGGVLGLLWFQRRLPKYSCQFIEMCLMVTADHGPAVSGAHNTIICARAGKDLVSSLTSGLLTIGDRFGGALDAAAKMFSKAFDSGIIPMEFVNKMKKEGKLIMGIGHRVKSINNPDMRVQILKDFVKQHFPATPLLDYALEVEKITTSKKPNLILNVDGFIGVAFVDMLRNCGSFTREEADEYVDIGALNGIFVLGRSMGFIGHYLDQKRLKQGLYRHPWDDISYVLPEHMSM
Protocol: as §1, §2

[3] = system: sn-Glycerol-3-Phosphate Acyl Transferase; assay: In vitro enzyme activity, liver homogenate: sn-glycerol-3-phosphate acyl transferase; type: biochemical, CF1 male mouse; conditions: ± SD, N = 6
Protocol: as §1, §2

[4] = system: ATP Dependent Citrate Lyase; assay: In vivo enzyme activity, liver of treated mice: ATP dependent citrate lyase; parameters: species or system CF1 male mice; conditions: 16 days, ± SD
Protocol: as §1, §2

Fatty Acid Synthetase = assay: In vivo enzyme activity, liver of treated mice: fatty acid synthetase; parameters: species or system CF1 male mice; conditions: 16 days, ± SD
Protocol: as §1, §2

[5] = system: sn-Glycerol-3-Phosphate Acyl Transferase; assay: In vivo enzyme activity, liver of treated mice: sn-glycerol-3-phosphate acyl transferase; parameters: species or system CF1 male mice; conditions: 16 days, ± SD
Protocol: as §1, §2

[6] = system: Phosphatidate Phosphohydrolase; assay: In vivo enzyme activity, liver of treated mice: phosphatidate phosphohydrolase; parameters: species or system CF1 male mice; conditions: 16 days, ± SD
Protocol: as §1, §2

Liver = assay: Lipid Extraction Studies in Rats, Example 11: liver; type: in vivo, Sprague Dawley male rats; conditions: oral 20 mg/kg/day, fourteen days, ± SD
Feces = assay: Lipid Extraction Studies in Rats, Example 11: feces; type: in vivo, Sprague Dawley male rats; conditions: oral 20 mg/kg/day, fourteen days, ± SD
VLDL = assay: Lipoprotein fractions in Rats, Example 11: VLDL; type: in vivo, Sprague Dawley male rats; conditions: oral 20 mg/kg/day, fourteen days, ± SD
Protocol: A group of six Sprague Dawley male rats were treated with 20 mg/kg/day of 3,4,5,6-dibenzohomopiperidine. The treatment was applied orally. An equal number of Sprague Dawley male rats, having approximately the same weight, were utilized as an untreated control. At the end of fourteen days the control and treated rats were sacrificed. Blood was collected from the abdominal aorta and lipoprotein fractions were obtained by the method of Hatch and Lees [Adv. Lipid Rees., 6, 1 (1968)] and Havel et al. [J. Clin Invest., 34, 1345 (1955)]. Each of the fractions were analyzed for cholesterol, triglycerides, neutral lipids, phospholipids and protein levels.

serum triglycerides = assay: Testing of Normal Mice: serum triglycerides (BioDynamics kit), Example 7; type: in vivo, CF1 male mice; conditions: Mus musculus, 384 h, day 16, ± SD

SMILES: c1ccc2c(c1)CNCc1ccccc1-2 [Compound 3, 3,4,5,6-dibenzohomopiperidine]
- Percent Control, in vitro enzyme activity ([1]; 50 μM): 99 ± 6%
- Percent Control, in vitro enzyme activity ([1]; 100 μM): 97 ± 5%
- Percent Control, in vitro enzyme activity ([1]; 200 μM): 99 ± 7%
- remaining activity at 50 µM ([2]; 50 μM): 87 ± 5%
- remaining activity at 100 µM ([2]; 100 μM): 38 ± 3%
- remaining activity at 200 µM ([2]; 200 μM): 33 ± 4%
- Percent Control, in vitro enzyme activity ([3]; 50 μM): 35 ± 6%
- Percent Control, in vitro enzyme activity ([3]; 100 μM): 34 ± 5%
- Percent Control, in vitro enzyme activity ([3]; 200 μM): 51 ± 4%
- Percent Control, in vivo enzyme activity ([4]; 10 mg/kg/day ip): 73 ± 6%
- Percent Control, in vivo enzyme activity ([4]; 20 mg/kg/day ip): 63 ± 4%
- Percent Control, in vivo enzyme activity ([4]; 40 mg/kg/day ip): 62 ± 3%
- Percent Control, in vivo enzyme activity ([4]; 60 mg/kg/day ip): 65 ± 5%
- Percent Control, in vivo enzyme activity (Fatty Acid Synthetase; 10 mg/kg/day ip): 100 ± 8%
- Percent Control, in vivo enzyme activity (Fatty Acid Synthetase; 20 mg/kg/day ip): 114 ± 6%
- Percent Control, in vivo enzyme activity (Fatty Acid Synthetase; 40 mg/kg/day ip): 106 ± 7%
- Percent Control, in vivo enzyme activity (Fatty Acid Synthetase; 60 mg/kg/day ip): 110 ± 8%
- Percent Control, in vivo enzyme activity ([5]; 10 mg/kg/day ip): 45 ± 7%
- Percent Control, in vivo enzyme activity ([5]; 20 mg/kg/day ip): 68 ± 8%
- Percent Control, in vivo enzyme activity ([5]; 40 mg/kg/day ip): 62 ± 6%
- Percent Control, in vivo enzyme activity ([5]; 60 mg/kg/day ip): 81 ± 6%
- Percent Control, in vivo enzyme activity ([6]; 10 mg/kg/day ip): 51 ± 4%
- Percent Control, in vivo enzyme activity ([6]; 20 mg/kg/day ip): 47 ± 9%
- Percent Control, in vivo enzyme activity ([6]; 40 mg/kg/day ip): 81 ± 6%
- Percent Control, in vivo enzyme activity ([6]; 60 mg/kg/day ip): 100 ± 6%
- Cholesterol, concentration as a function of control (Liver): 65 ± 5%
- Mg Lipid Wt, concentration as a function of control (Liver): 89 ± 7%
- Neutral Lipids, concentration as a function of control (Liver): 80 ± 5%
- Phospholipids, concentration as a function of control (Liver): 98 ± 9%
- Protein, concentration as a function of control (Liver): 97 ± 7%
- Triglycerides, concentration as a function of control (Liver): 76 ± 6%
- Cholesterol, concentration as a function of control (Feces): 103 ± 7%
- Mg Lipid Wt, concentration as a function of control (Feces): 102 ± 8%
- Neutral Lipids, concentration as a function of control (Feces): 108 ± 9%
- Phospholipids, concentration as a function of control (Feces): 108 ± 10%
- Protein, concentration as a function of control (Feces): 133 ± 8%
- Triglycerides, concentration as a function of control (Feces): 99 ± 7%
- Cholesterol, concentration as a function of control (VLDL): 40 ± 4%
- Neutral Lipids, concentration as a function of control (VLDL): 63 ± 6%
- Phospholipids, concentration as a function of control (VLDL): 95 ± 7%
- Protein, concentration as a function of control (VLDL): 96 ± 8%
- Triglycerides, concentration as a function of control (VLDL): 69 ± 5%
- response vs control in vivo at 10 mg/kg (serum triglycerides; 10 mg/kg/day ip): 48 ± 5%
- response vs control in vivo at 40 mg/kg (serum triglycerides; 40 mg/kg/day ip): 44 ± 6%
- response vs control in vivo at 60 mg/kg (serum triglycerides; 60 mg/kg/day ip): 55 ± 6%
